One series has as its target T1, OCT2 (Homo sapiens, UniProt O15244).
T1 sequence (O15244 1-555): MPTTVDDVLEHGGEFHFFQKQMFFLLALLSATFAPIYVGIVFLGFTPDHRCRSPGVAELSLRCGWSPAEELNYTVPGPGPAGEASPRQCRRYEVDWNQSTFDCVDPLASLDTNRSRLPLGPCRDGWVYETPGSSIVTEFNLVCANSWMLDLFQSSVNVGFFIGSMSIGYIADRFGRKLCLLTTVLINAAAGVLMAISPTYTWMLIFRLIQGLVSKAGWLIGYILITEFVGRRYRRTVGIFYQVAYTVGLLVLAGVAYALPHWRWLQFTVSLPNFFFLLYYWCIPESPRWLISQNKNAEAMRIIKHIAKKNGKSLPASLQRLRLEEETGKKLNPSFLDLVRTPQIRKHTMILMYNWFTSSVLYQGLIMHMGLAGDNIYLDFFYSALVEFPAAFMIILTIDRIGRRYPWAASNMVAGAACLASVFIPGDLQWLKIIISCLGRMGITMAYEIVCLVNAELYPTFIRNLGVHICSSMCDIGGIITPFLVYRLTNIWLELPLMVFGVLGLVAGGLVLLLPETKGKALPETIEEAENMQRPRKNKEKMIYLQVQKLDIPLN
Nature of the series: Transporter inhibition assay, OCT2.

For a further series, the target named is T2, OCT1 (Homo sapiens, UniProt O15245).
T2 sequence (O15245 1-554): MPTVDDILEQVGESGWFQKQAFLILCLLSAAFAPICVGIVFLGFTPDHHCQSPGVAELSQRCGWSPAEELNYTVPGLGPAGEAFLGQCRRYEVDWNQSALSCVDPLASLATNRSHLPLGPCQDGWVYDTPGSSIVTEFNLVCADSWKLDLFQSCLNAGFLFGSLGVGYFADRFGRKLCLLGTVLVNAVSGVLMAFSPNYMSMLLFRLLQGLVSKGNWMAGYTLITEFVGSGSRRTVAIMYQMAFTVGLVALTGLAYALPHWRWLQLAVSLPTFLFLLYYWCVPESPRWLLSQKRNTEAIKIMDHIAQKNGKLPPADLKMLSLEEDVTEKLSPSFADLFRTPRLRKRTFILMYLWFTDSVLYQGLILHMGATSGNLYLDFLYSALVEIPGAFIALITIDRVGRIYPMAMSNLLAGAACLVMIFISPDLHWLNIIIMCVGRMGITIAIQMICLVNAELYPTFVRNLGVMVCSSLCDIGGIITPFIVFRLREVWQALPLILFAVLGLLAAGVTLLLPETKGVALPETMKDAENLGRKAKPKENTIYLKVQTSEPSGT
The series is described as follows: Transporter inhibition assay, OCT1.

Another series concerns the target T3, OATP2B1 (Homo sapiens, UniProt O94956).
T3 sequence (O94956 1-709): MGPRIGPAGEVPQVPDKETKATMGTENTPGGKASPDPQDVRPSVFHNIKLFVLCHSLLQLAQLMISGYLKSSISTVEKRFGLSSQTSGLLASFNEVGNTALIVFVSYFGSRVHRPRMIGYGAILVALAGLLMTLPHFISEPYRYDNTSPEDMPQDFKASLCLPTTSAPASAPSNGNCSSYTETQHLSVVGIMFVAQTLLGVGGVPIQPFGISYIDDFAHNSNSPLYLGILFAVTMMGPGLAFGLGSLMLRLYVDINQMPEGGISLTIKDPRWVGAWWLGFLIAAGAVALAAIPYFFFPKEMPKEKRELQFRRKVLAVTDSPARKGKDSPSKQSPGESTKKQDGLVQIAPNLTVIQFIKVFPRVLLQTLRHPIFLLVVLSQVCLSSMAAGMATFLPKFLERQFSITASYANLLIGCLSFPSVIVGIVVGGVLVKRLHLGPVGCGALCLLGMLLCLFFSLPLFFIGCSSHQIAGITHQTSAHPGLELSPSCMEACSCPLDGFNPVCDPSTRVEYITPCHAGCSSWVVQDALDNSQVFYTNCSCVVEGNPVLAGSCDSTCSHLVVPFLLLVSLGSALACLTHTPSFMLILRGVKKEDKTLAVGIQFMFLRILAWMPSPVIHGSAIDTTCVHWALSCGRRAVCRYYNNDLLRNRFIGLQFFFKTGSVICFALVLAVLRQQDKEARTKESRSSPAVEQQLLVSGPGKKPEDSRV
The series is described as follows: Transporter inhibition assay, OATP2B1. The conditions noted are these: for inhibition at 100 μM: cell line (HEK293 or MDCKII) stably expressing OATP2B1.

The target of a further series is T4, OAT3 (Homo sapiens, UniProt Q8TCC7).
T4 sequence (Q8TCC7 1-542): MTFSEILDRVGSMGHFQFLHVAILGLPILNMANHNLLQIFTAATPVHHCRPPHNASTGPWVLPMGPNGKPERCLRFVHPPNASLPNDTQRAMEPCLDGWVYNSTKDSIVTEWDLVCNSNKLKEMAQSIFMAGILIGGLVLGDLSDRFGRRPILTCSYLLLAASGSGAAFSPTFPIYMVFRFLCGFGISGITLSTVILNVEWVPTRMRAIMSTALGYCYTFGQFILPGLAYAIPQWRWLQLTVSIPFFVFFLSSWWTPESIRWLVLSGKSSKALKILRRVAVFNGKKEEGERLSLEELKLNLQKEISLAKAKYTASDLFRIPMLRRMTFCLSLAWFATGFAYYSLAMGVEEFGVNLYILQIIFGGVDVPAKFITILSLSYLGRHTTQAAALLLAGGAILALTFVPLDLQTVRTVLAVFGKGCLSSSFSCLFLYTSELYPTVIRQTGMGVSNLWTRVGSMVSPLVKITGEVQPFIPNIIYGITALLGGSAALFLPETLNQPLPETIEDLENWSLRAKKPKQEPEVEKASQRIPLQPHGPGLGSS
Nature of the series: Transporter inhibition assay, OAT3.

The target of a further series is P-gp (Homo sapiens, UniProt P08183). Nature of the series: Transporter inhibition assay, P-gp. Format: biochemical.

Where two headings read alike, the source gives them in different places. Some results are limits rather than exact numbers.

Results on three molecules are retold here after publication PMC8058163 (Clinical pharmacology and therapeutics, 2020).

P-gp, sequence (P08183 whole entry): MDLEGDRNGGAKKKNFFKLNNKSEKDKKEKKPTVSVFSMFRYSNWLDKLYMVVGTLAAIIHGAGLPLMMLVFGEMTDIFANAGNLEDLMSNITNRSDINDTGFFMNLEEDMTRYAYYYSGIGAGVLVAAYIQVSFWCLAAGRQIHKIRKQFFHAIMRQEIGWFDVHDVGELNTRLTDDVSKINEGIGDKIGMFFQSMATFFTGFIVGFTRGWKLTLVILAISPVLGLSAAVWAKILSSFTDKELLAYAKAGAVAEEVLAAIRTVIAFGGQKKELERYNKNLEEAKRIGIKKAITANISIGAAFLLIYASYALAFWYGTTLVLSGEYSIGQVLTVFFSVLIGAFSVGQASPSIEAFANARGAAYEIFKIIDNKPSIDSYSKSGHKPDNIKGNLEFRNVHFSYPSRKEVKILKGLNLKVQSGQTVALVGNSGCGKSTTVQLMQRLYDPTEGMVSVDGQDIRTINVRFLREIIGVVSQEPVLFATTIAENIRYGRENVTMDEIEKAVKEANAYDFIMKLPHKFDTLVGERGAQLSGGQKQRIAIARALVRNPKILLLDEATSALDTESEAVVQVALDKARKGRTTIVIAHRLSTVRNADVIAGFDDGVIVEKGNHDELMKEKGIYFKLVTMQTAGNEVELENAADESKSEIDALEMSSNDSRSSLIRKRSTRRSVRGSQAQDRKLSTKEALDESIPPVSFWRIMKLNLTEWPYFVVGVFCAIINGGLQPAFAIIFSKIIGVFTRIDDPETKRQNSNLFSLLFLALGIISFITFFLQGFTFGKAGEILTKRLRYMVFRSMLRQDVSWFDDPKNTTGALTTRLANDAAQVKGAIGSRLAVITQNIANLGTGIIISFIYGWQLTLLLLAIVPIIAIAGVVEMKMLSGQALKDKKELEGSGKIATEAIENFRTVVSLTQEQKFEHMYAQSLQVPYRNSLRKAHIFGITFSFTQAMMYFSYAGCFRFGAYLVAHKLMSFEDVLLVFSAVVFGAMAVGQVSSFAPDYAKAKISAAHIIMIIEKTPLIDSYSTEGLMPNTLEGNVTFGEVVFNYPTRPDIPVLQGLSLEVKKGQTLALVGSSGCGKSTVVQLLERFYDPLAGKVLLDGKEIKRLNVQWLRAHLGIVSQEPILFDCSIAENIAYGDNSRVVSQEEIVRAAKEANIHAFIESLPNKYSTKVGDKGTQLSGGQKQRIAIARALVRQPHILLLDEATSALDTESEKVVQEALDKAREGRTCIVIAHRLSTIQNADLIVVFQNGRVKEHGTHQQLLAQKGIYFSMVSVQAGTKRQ

For the molecule `COc1ccc2c(c1OC)C(=O)O[C@@H]2[C@H]1c2cc3c(cc2CCN1C)OCO3` [(−)-β-Hydrastine, (1R,9S)-(−)-β-Hydrastine], the IC50 was determined as 90 µM at OCT2 (OCT2, isolated alkaloids, mean [95% CI], three technical replicates); 6.6 µM at OCT1 (OCT1, isolated alkaloids, mean [95% CI], three technical replicates); 203 µM at OAT3 (OAT3, isolated alkaloids, mean [95% CI], three technical replicates). The “inhibition at the highest concentration tested” value against OATP2B1 (OATP2B1, alkaloids screened at 10 and 100 μM) is “-- (inhibition not observed)”.

In the case of `COc1ccc2cc3[n+](cc2c1OC)CCc1cc2c(cc1-3)OCO2` [Berberine, berberine chloride], the IC50 at OCT2 came to 45 µM; at OCT1 it was 19 µM; against OAT3 it was 79 µM. The inhibition at 100 μM against P-gp and against OATP2B1 was < 20% each time.

Consider `CN1CCc2cc3c(cc2C1O)OCO3` (stereo not shown) [Hydrastinine, hydrastinine chloride monohydrate], for which, on OCT2, the midpoint of inhibition, the IC50, lay at 95 µM. Further, the inhibition at 100 μM against P-gp, against OATP2B1 and against OAT3 (cell line (HEK293 or MDCKII) stably expressing OAT3) was < 20% in each case.

In general, IC50 refers to the concentration that inhibits the measured activity by half. A higher IC50 goes with a need for much substance. By inhibition is commonly meant the share of the control response that was lost under treatment. High values mean a strong effect, low ones a weak effect.
